The source of these data is US20080008773A1, “Food beverage or feed for the promotion of osteogenesis comprising umbelliferae, liliaceae or compositae plant species” (priority 2002, published 2008).

In one experiment the test system is ST-2 cells. In words: Induction of differentiation of ST-2 cells into osteoblasts (alkaline phosphatase as index). The format is cell-based, Mouse. How it is done:
(§1) (1) Mouse interstitial cell strain ST-2 was suspended in DMEM medium (manufactured by Bio Whittaker) containing 10% fetal bovine serum (manufactured by Bio Whittaker) so as to have a concentration of 3×10^4 cells/ml. The suspension was put to a 96-well plate in an amount of 0.1 ml per well, and the cells were cultured sterilely. After the cells were cultured for 2 days, the medium was exchanged with a fresh medium. The compound a derived from root portions of Angelica keiskei koidz. obtained in Example 1 was added thereto as a sample, and the cells were cultured for 3 days. Subsequently, differentiation of ST-2 cells into osteoblasts was measured using alkaline phosphatase as an index. The cells were washed once with PBS, 100 μl of a reaction substrate solution (100 mM diethanolamine buffer, pH 10.0, 2 mM magnesium chloride, 1 mM p-nitrophenyl phosphate) was added thereto, and the reaction was carried out at 37° C. for 30 minutes. Next, the reaction was terminated with adding 100 μl of 0.2 N sodium hydroxide, and the amount of p-nitrophenol which was released was determined by determining absorbance at 405 nm. The activity for induction of differentiation into osteoblasts was shown by setting a group without addition of the sample as a control, and defining alkaline phosphatase activity of the control as 100%. The experiments were carried out twice, and the average was taken.

The subject of another experiment is MC3T3-E1 cells. The experiment can be described thus: Induction of differentiation of MC3T3-E1 cells into osteoblasts (alkaline phosphatase as index). Format: cell-based, Mouse. How it is done: as §1
Mouse pre-osteoblast strain MC3T3-E1 was suspended in DMEM medium containing 10% fetal bovine serum so as to have a concentration of 3×10^4 cells/ml. The suspension was put to a 96-well plate in an amount of 0.1 ml per well, and the cells were cultured sterilely. After the cells were cultured for 2 days, the medium was exchanged with a fresh medium. The compound a derived from root portions of Angelica keiskei koidz. obtained in Example 1 was added thereto as a sample, and the cells were cultured for 5 days. Subsequently, the differentiation into osteoblasts was determined using alkaline phosphatase as an index in the same manner as in Example 2.

Molecules are shown by their SMILES.

On to `CC12CCC(O)C(C)(C)C1Cc1c(O)ccc(C(=O)/C=C/c3ccc(O)cc3)c1O2` (single isomer, unassigned) [Compound a, (E)-1-(5,6,7,8,8a,10a-hexahydro-1,7-dihydroxy-8,8,10a-trimethyl-9H-xanthen-4-yl)-3-(4-hydroxyphenyl)-2-propen-1-one], for which the “Induction of differentiation into osteoblasts (in words)” value was “induces differentiation into osteoblasts in a concentration-dependent manner” with ST-2 cells and “induces the differentiation into osteoblasts in a concentration-dependent manner” in the experiment on MC3T3-E1 cells. For the same molecule, the activity at 0.313 µM in the experiment with ST-2 cells (Mus musculus, 72 h, 0.313 μM, cultured 3 days, control without sample = 100%) worked out at 219%. In addition, in the experiment on ST-2 cells (Mus musculus, 72 h, 0.625 μM, cultured 3 days, control without sample = 100%), the activity at 0.625 µM turned out to be 260%. In addition, the activity at 1.25 µM in the experiment on ST-2 cells (Mus musculus, 72 h, 1.25 μM, cultured 3 days, control without sample = 100%) was 358%; in the experiment with MC3T3-E1 cells (Mus musculus, 120 h, 1.25 μM, cultured 5 days, control = 100%), 171%. Moreover, in the experiment with MC3T3-E1 cells (Mus musculus, 120 h, 2.5 μM, cultured 5 days, control = 100%), the activity at 2.5 µM came out at 292%.
